From ChEMBL document CHEMBL3585268, “Treatment of Cancer with NAMPT Inhibitors” (2015)

Key:
Format in all cases: functional
Mus musculus [1] = assay: In vivo inhibition of NAMPT in human A2780 cells xenografted in Harlan nude mouse assessed as NAD+ level per mg of tissue at 5 mg/kg, po bid measured 7 hrs post second dose by LC-MS analysis (reference value: 55.03 to 56.3 pmol)
Mus musculus [2] = assay: In vivo inhibition of NAMPT in human A2780 cells xenografted in Harlan nude mouse assessed as NAD+ level per mg of tissue at 10 mg/kg, po bid measured 7 hrs post second dose by LC-MS analysis (reference value: 55.03 to 56.3 pmol)
Mus musculus [3] = assay: In vivo inhibition of NAMPT in human A2780 cells xenografted in Harlan nude mouse assessed as NAD+ level per mg of tissue at 20 mg/kg, po bid measured 7 hrs post second dose by LC-MS analysis (reference value: 55.03 to 56.3 pmol)
Mus musculus [4] = assay: In vivo inhibition of NAMPT in human NCI-H1155 cells xenografted in Harlan nude mouse assessed as NAD+ level per mg of tissue at 5 mg/kg, po bid measured 7 hrs post second dose by LC-MS analysis (reference value: 20.08 to 57.97 pmol)
Mus musculus [5] = assay: In vivo inhibition of NAMPT in human NCI-H1155 cells xenografted in Harlan nude mouse assessed as NAD+ level per mg of tissue at 10 mg/kg, po bid measured 7 hrs post second dose by LC-MS analysis (reference value: 20.08 to 57.97 pmol)
Mus musculus [6] = assay: In vivo inhibition of NAMPT in human NCI-H1155 cells xenografted in Harlan nude mouse assessed as NAD+ level per mg of tissue at 20 mg/kg, po bid measured 7 hrs post second dose by LC-MS analysis (reference value: 20.08 to 57.97 pmol)
Mus musculus [7] = assay: In vivo inhibition of NAMPT in human A2780 cells xenografted in Harlan nude mouse assessed as NAD+ level per mg of tissue at 8 mg/kg, po bid measured 7 hrs post second dose by LC-MS analysis (reference value: 55.03 to 56.3 pmol)
Mus musculus [8] = assay: In vivo inhibition of NAMPT in human A2780 cells xenografted in Harlan nude mouse assessed as NAD+ level per mg of tissue at 16 mg/kg, po bid measured 7 hrs post second dose by LC-MS analysis (reference value: 55.03 to 56.3 pmol)
Mus musculus [9] = assay: In vivo inhibition of NAMPT in human A2780 cells xenografted in Harlan nude mouse assessed as NAD+ level per mg of tissue at 32 mg/kg, po bid measured 7 hrs post second dose by LC-MS analysis (reference value: 55.03 to 56.3 pmol)
Mus musculus [10] = assay: In vivo inhibition of NAMPT in human NCI-H1155 cells xenografted in Harlan nude mouse assessed as NAD+ level per mg of tissue at 8 mg/kg, po bid measured 7 hrs post second dose by LC-MS analysis (reference value: 20.08 to 57.97 pmol)
Mus musculus [11] = assay: In vivo inhibition of NAMPT in human NCI-H1155 cells xenografted in Harlan nude mouse assessed as NAD+ level per mg of tissue at 16 mg/kg, po bid measured 7 hrs post second dose by LC-MS analysis (reference value: 20.08 to 57.97 pmol)
Mus musculus [12] = assay: In vivo inhibition of NAMPT in human NCI-H1155 cells xenografted in Harlan nude mouse assessed as NAD+ level per mg of tissue at 32 mg/kg, po bid measured 7 hrs post second dose by LC-MS analysis (reference value: 20.08 to 57.97 pmol)

**Q.** How did the Activity (Mus musculus [1]) turn out when `CC(C)(O)CS(=O)(=O)Nc1ccc2c(c1)CCN(C(=O)COc1cccnc1)C2` was run?
**A.** 5.04 pmol

**Q.** What about the Activity (Mus musculus [2]) of the same compound?
**A.** 2.55 pmol

**Q.** And the Activity (Mus musculus [3])?
**A.** 3.29 pmol

**Q.** What about the Activity (Mus musculus [4]) of the same compound?
**A.** 7.48 pmol

**Q.** And the Activity (Mus musculus [5])?
**A.** 3.63 pmol

**Q.** What about the Activity (Mus musculus [6]) of the same compound?
**A.** 1.82 pmol

**Q.** With `COCCS(=O)(=O)Nc1ccc2c(c1)CCN(C(=O)COc1cccnc1)C2` as the compound, how does the Activity (Mus musculus [7]) read?
**A.** 3.97 pmol

**Q.** And the Activity (Mus musculus [8])?
**A.** 6.52 pmol

**Q.** And the Activity (Mus musculus [9])?
**A.** 6.38 pmol

**Q.** What about the Activity (Mus musculus [10]) of the same compound?
**A.** 5.19 pmol

**Q.** What about the Activity (Mus musculus [11]) of the same compound?
**A.** 1.98 pmol

**Q.** And the Activity (Mus musculus [12])?
**A.** 0.84 pmol
